Laboratory results as given in publication PMC4508061, “Selectivity Profiling and Biological Activity of Novel β-Carbolines as Potent and Selective DYRK1 Kinase Inhibitors” (PLoS ONE, 2015).

What was measured:
Assay in all cases: ProQinase radiometric kinase panel
Settings in all cases: mean of 2 exp.
TLK1 = TLK1 (Homo sapiens, UniProt Q9UKI8)
SNK = SNK (Homo sapiens, UniProt Q9NYY3)
p38-alpha = p38-alpha (Homo sapiens, UniProt Q16539)
CDK7/CycH/MAT1 = CDK7/CycH/MAT1 (Homo sapiens, UniProt P50613)
DDR2 = DDR2 (Homo sapiens, UniProt Q16832)
KIT = KIT (Homo sapiens, UniProt P10721)
Method: (§1) Gini coefficients were calculated and the Lorenz curve (Fig 3B) was plotted by applying the Microsoft Excel spreadsheet provided by Graczyk [44].
radiometric protein kinase assays.

CSK = CSK (Homo sapiens, UniProt P41240)
ACV-R2A = ACV-R2A (Homo sapiens, UniProt P27037)
STK25 = STK25 (Homo sapiens, UniProt O00506)
Aurora-A = Aurora-A (Homo sapiens, UniProt O14965)
MET = MET (Homo sapiens, UniProt P08581)
PBK = PBK (Homo sapiens, UniProt Q96KB5)
PBK, sequence (Q96KB5 whole entry): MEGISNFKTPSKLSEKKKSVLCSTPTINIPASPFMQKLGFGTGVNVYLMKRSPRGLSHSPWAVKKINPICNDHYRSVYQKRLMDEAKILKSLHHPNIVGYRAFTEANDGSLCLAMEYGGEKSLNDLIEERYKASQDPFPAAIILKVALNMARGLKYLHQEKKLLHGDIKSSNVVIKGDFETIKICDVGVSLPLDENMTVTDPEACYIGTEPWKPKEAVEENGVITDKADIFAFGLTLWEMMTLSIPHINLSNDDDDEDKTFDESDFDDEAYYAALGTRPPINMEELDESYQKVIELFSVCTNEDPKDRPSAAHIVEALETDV

EPHA3 = EPHA3 (Homo sapiens, UniProt P29320)
TSF1 = TSF1 (Homo sapiens, UniProt O75716)
GSG2 (Haspin) = GSG2 (Haspin) (Homo sapiens, UniProt Q8TF76)
MEKK3 = MEKK3 (Homo sapiens, UniProt Q99759)
PIM1 = PIM1 (Homo sapiens, UniProt P11309)
TLK2 = TLK2 (Homo sapiens, UniProt Q86UE8)
TLK2, sequence (Q86UE8 whole entry): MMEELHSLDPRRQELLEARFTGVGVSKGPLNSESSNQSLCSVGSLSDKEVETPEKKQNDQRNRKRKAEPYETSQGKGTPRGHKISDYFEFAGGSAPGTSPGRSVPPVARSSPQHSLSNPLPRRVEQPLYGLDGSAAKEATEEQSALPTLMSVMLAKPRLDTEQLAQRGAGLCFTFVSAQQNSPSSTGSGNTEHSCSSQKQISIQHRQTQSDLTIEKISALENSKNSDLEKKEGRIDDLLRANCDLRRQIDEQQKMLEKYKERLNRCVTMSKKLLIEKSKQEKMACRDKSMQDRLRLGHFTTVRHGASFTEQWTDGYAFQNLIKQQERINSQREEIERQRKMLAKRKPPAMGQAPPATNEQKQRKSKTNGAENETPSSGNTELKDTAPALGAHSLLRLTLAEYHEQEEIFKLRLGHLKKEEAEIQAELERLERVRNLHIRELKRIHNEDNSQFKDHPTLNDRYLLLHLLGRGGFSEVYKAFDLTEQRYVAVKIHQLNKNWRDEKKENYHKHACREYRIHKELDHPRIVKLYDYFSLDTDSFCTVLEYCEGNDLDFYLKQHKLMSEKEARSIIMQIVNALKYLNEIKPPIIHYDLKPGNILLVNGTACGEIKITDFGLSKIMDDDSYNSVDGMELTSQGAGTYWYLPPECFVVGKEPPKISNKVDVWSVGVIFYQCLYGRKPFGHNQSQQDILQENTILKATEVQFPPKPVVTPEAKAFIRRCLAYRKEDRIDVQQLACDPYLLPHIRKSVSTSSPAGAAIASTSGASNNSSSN

TYRO3 = TYRO3 (Homo sapiens, UniProt Q06418)
MYLK = MYLK (Homo sapiens, UniProt Q15746)
MYLK, sequence (Q15746 whole entry): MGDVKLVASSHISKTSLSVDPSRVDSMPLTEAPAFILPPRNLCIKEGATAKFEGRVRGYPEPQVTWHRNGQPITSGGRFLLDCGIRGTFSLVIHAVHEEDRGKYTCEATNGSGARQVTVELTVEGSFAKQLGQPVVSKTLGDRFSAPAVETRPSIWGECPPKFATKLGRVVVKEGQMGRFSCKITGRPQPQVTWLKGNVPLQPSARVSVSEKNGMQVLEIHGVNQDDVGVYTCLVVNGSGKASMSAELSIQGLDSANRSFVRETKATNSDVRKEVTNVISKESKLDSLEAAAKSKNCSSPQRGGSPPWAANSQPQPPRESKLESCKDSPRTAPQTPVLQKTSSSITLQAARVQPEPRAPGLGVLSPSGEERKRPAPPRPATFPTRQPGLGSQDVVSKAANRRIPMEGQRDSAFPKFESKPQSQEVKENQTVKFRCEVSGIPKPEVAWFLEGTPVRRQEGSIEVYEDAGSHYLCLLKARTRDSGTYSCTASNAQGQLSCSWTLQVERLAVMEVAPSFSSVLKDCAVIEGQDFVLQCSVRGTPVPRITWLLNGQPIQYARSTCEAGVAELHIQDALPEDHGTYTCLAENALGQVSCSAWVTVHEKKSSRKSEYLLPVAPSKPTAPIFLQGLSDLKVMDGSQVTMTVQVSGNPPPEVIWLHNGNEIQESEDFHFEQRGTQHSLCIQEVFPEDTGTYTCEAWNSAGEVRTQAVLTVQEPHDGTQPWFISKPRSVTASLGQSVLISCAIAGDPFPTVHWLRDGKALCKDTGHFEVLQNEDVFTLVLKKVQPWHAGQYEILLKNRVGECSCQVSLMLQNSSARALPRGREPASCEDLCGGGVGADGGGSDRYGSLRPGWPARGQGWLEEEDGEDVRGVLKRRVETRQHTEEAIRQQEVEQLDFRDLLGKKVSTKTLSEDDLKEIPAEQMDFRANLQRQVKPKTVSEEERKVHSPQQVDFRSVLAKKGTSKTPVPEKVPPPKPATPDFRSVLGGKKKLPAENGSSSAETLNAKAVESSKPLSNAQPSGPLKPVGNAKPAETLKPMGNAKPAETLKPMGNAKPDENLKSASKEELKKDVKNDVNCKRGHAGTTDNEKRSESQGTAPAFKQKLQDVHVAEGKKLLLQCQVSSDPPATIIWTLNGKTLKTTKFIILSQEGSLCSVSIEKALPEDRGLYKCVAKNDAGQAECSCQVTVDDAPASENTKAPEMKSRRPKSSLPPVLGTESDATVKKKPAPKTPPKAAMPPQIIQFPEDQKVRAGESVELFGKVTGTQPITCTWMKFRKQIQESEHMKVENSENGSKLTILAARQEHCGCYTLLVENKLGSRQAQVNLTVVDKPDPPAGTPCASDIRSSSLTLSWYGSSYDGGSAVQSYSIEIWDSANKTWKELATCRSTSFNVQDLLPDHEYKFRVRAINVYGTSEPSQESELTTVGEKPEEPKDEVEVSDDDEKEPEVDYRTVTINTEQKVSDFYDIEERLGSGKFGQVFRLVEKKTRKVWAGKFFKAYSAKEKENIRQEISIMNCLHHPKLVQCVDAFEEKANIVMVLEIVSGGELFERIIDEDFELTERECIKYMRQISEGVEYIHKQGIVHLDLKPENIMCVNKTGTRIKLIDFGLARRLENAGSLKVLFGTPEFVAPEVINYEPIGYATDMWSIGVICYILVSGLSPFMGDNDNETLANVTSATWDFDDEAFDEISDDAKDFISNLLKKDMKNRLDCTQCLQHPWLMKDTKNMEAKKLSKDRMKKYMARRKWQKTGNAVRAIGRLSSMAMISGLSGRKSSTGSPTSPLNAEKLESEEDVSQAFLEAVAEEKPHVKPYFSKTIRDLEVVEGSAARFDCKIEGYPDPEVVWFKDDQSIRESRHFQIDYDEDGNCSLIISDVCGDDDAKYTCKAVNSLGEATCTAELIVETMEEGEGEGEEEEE

MST4 = MST4 (Homo sapiens, UniProt Q9P289)
PKC-nu = PKC-nu (Homo sapiens, UniProt O94806)
PKC-nu, sequence (O94806 whole entry): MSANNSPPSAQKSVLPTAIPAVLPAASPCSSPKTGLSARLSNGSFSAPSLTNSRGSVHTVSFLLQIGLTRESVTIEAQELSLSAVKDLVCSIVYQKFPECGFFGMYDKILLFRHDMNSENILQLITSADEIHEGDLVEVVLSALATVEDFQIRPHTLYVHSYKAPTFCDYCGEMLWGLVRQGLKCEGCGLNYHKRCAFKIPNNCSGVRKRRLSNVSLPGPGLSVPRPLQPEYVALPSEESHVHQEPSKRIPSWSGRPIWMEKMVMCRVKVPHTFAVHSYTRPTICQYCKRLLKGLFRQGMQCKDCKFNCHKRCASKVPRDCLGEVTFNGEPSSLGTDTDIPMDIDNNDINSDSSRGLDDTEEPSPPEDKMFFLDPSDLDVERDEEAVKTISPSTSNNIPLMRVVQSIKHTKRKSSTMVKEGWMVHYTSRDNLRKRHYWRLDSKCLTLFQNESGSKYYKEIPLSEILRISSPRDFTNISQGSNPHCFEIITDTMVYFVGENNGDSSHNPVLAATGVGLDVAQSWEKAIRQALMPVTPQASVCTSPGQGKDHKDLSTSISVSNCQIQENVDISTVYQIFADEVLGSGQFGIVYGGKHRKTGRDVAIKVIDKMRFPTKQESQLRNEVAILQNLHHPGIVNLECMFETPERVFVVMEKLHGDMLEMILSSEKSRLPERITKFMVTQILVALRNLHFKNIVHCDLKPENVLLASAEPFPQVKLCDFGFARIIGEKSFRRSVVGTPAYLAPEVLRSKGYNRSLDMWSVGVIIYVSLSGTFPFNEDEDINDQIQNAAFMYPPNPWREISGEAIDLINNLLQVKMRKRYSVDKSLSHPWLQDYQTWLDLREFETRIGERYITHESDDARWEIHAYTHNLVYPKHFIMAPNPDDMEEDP

SAK = SAK (Homo sapiens, UniProt O00444)
MARK4 = MARK4 (Homo sapiens, UniProt Q96L34)
JNK2 = JNK2 (Homo sapiens, UniProt P45984)
Method: as §1
radiometric protein kinase assays.

MATK = MATK (Homo sapiens, UniProt P42679)
CAMK4 = CAMK4 (Homo sapiens, UniProt Q16566)
MAP4K2 = MAP4K2 (Homo sapiens, UniProt Q12851)
ABL2 = ABL2 (Homo sapiens, UniProt P42684)
ABL2, sequence (P42684 whole entry): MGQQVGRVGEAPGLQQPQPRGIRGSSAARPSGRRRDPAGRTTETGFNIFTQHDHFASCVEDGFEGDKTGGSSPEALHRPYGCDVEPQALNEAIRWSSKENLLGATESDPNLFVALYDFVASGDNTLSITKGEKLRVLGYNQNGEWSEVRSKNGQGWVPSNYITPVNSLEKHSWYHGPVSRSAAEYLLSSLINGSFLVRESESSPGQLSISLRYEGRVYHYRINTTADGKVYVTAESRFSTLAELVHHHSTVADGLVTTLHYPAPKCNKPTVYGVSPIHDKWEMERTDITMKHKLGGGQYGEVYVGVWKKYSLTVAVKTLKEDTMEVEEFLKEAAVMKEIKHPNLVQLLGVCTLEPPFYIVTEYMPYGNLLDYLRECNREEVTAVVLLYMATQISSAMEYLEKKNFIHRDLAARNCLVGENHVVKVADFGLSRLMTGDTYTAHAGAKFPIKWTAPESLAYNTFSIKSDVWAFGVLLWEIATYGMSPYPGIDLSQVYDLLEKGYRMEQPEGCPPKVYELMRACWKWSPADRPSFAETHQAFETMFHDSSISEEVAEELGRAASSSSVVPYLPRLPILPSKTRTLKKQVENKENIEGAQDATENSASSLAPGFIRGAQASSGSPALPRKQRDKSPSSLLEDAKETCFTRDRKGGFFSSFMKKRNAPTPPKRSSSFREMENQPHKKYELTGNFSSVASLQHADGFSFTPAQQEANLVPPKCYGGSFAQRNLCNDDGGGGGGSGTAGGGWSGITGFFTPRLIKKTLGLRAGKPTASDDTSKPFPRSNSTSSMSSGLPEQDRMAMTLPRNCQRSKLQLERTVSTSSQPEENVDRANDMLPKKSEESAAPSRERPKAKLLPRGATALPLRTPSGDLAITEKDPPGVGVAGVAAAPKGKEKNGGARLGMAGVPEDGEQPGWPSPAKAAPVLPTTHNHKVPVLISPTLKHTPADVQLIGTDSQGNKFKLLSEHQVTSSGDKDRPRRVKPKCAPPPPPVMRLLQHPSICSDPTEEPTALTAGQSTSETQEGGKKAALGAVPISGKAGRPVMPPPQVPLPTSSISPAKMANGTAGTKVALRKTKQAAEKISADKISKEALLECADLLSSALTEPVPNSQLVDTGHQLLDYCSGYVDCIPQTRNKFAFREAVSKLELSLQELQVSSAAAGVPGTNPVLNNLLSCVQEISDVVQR

IRAK4 = IRAK4 (Homo sapiens, UniProt Q9NWZ3)
RPS6KA1 = RPS6KA1 (Homo sapiens, UniProt Q15418)
LYN = LYN (Homo sapiens, UniProt P07948)
NEK6 = NEK6 (Homo sapiens, UniProt Q9HC98)
TGFB-R2 = TGFB-R2 (Homo sapiens, UniProt P37173)
mTOR = mTOR (Homo sapiens, UniProt P42345)
CK1-gamma1 = CK1-gamma1 (Homo sapiens, UniProt Q9HCP0)
GRK4 = GRK4 (Homo sapiens, UniProt P32298)
CK1-alpha1 = CK1-alpha1 (Homo sapiens, UniProt P48729)
CSF1-R = CSF1-R (Homo sapiens, UniProt P07333)

SMILES: COc1ccc2c3ccnc(Cl)c3n(CC#N)c2c1 [AnnH75]
- residual activity at 1 µM, Mean (TLK1): 91 % of control
- residual activity at 1 µM, Mean (SNK): 92 % of control
- residual activity at 1 µM, Mean (p38-alpha): 86 % of control
- residual activity at 1 µM, Mean (CDK7/CycH/MAT1): 100 % of control
- residual activity at 1 µM, Mean (DDR2): 97 % of control
- residual activity at 1 µM, Mean (KIT): 82 % of control
- residual activity at 1 µM, Mean (CSK): 94 % of control
- residual activity at 1 µM, Mean (ACV-R2A): 97 % of control
- residual activity at 1 µM, Mean (STK25): 96 % of control
- residual activity at 1 µM, Mean (Aurora-A): 89 % of control
- residual activity at 1 µM, Mean (MET): 100 % of control
- residual activity at 1 µM, Mean (PBK): 94 % of control
- residual activity at 1 µM, Mean (EPHA3): 105 % of control
- residual activity at 1 µM, Mean (TSF1): 97 % of control
- residual activity at 1 µM, Mean (GSG2 (Haspin)): 5 % of control
- residual activity at 1 µM, Mean (MEKK3): 97 % of control
- residual activity at 1 µM, Mean (PIM1): 41 % of control
- residual activity at 1 µM, Mean (TLK2): 108 % of control
- residual activity at 1 µM, Mean (TYRO3): 93 % of control
- residual activity at 1 µM, Mean (MYLK): 92 % of control
- residual activity at 1 µM, Mean (MST4): 92 % of control
- residual activity at 1 µM, Mean (PKC-nu): 87 % of control
- residual activity at 1 µM, Mean (SAK): 112 % of control
- residual activity at 1 µM, Mean (MARK4): 104 % of control
- residual activity at 1 µM, Mean (JNK2): 100 % of control
- residual activity at 1 µM, Mean (MATK): 102 % of control
- residual activity at 1 µM, Mean (CAMK4): 111 % of control
- residual activity at 1 µM, Mean (MAP4K2): 93 % of control
- residual activity at 1 µM, Mean (ABL2): 96 % of control
- residual activity at 1 µM, Mean (IRAK4): 92 % of control
- residual activity at 1 µM, Mean (RPS6KA1): 63 % of control
- residual activity at 1 µM, Mean (LYN): 77 % of control
- residual activity at 1 µM, Mean (NEK6): 104 % of control
- residual activity at 1 µM, Mean (TGFB-R2): 83 % of control
- residual activity at 1 µM, Mean (mTOR): 90 % of control
- residual activity at 1 µM, Mean (CK1-gamma1): 92 % of control
- residual activity at 1 µM, Mean (GRK4): 49 % of control
- residual activity at 1 µM, Mean (CK1-alpha1): 90 % of control
- residual activity at 1 µM, Mean (CSF1-R): 106 % of control
